Results from paper PMC7897990, “TriTOX: A novel Trichomonas vaginalis assay platform for high-throughput screening of compound libraries” (International Journal for Parasitology: Drugs and Drug …, 2021).

Columns and labels:
[1] = tested on: Trichomonas vaginalis G3 trophozoites; settings: parasite screen at 1 µg/mL; for T.vaginalis_%inb_Rep1: replicate 1; for T.vaginalis_%inb_Rep2: replicate 2
[2] = tested on: nontumorigenic neonatal foreskin fibroblast (NFF) cell line; settings: NFF cells; screen at 5 µg/mL

| Compound | T.vaginalis_%inb_Rep1 [1] [%] | T.vaginalis_%inb_Rep2 [1] [%] | NFF_Activity [2] |
| --- | --- | --- | --- |
| CCCCCCCCCCCCCCCC(=O)N[C@H]1CCOC1=O [BIA-H1500] | 13.84 | 11.55 | I (otherwise these were reported as inactive (I)) |
| Oc1cccc2nc3ccccc3nc12 [BIA-H1520] | 9.69 | 12.89 | I (otherwise these were reported as inactive (I)) |
| Cc1cc(O)c(O)c2oc(=O)c3c(O)cc(O)cc3c12 [BIA-H1558] | 10.09 | 9.24 | I (otherwise these were reported as inactive (I)) |
| COc1c(O)c(C)c(C)c(O)c1OC [BIA-H1651] | 13.69 | 12.19 | A (active (A) compounds having >25% inhibitory activity) |
| Cc1cc(O)cc(=O)o1 [BIA-H1736] | 11.05 | 13.86 | I (otherwise these were reported as inactive (I)) |
| C[C@@H]1OC(=O)[C@H]2C[C@H]3CCCC[C@@H]3[C@@H](/C=C/[C@H]3CCC[C@H](C)N3C)[C@@H]12 [BIA-H1744] | 12.98 | 14.75 | I (otherwise these were reported as inactive (I)) |
| COc1ccc([C@@H]2CC(=O)c3c(O)cc(O[C@@H]4O[C@H](CO[C@@H]5O[C@@H](C)[C@H](O)[C@@H](O)[C@H]5O)[C@@H](O)[C@H](O)[C@H]4O)cc3O2)cc1O [BIA-H1766] | 15.42 | 4.23 | I (otherwise these were reported as inactive (I)) |
| CN1CCC2(c3cccc4c3NC3N(C)CCC43C34CCN(C)C3Nc3ccccc34)c3ccccc3NC12 (stereo not drawn) [BIA-H1941] | 7.39 | 6.28 | A (active (A) compounds having >25% inhibitory activity) |
| C[N+]1(C)CCC2(c3cccc4c3NC3C4(C45CC[N+](C)(C)C4Nc4ccccc45)CC[N+]3(C)C)c3ccccc3NC21.[I-].[I-].[I-] (stereo not drawn) [BIA-H1942] | 9.49 | 13.53 | I (otherwise these were reported as inactive (I)) |
| CN1CCC2(c3cccc4c3NC3N(C)CCC43C34CCN(C)C3Nc3ccccc34)c3ccccc3NC12 (stereo not drawn) [BIA-H1948] | 8.81 | 5.36 | A (active (A) compounds having >25% inhibitory activity) |
| COc1ccc2c(c1OC)C(=O)O[C@@H]2[C@H]1c2cc3c(cc2CCN1C)OCO3 [BIA-H1954] | 11.27 | 6.40 | I (otherwise these were reported as inactive (I)) |
| O=C1CCCC2C3CC(CN12)C1CC(O)CCN1C3 (stereo not drawn) [BIA-H1961] | 9.18 | 14.99 | I (otherwise these were reported as inactive (I)) |
| CN=C1NC(=O)[C@H]([C@H](C)c2c[nH]c3ccccc23)O1 [BIA-I1040] | 25.76 | 5.58 | I (otherwise these were reported as inactive (I)) |
| CO[C@H]1C[C@H](O[C@H]2[C@H](C)O[C@@H](O[C@@H]3/C(C)=C/C[C@@H]4C[C@@H](C[C@]5(CC[C@H](C)[C@@H](C(C)C)O5)O4)OC(=O)[C@@H]4C=C(C)[C@@H](O)[C@H]5OC/C(=C\C=C\[C@@H]3C)[C@]54O)C[C@@H]2OC)O[C@@H](C)[C@@H]1O [BIA-I1117] | 14.71 | 14.82 | I (otherwise these were reported as inactive (I)) |
| CC[C@H](C)[C@H]1O[C@]2(CC[C@@H]1C)C[C@@H]1C[C@@H](C/C=C(\C)[C@@H](O[C@H]3C[C@H](OC)[C@@H](O[C@H]4C[C@H](OC)[C@@H](O)[C@H](C)O4)[C@H](C)O3)[C@@H](C)/C=C/C=C3\CO[C@@H]4[C@H](O)C(C)=C[C@@H](C(=O)O1)[C@]34O)O2 [BIA-I1119] | 13.79 | 12.96 | I (otherwise these were reported as inactive (I)) |
| CC[C@H](C)[C@H]1O[C@]2(CC[C@@H]1C)C[C@@H]1C[C@@H](C/C=C(\C)[C@@H](O[C@H]3C[C@H](OC)[C@@H](O)[C@H](C)O3)[C@@H](C)/C=C/C=C3\CO[C@@H]4[C@H](O)C(C)=C[C@@H](C(=O)O1)[C@]34O)O2 [BIA-I1150] | 15.62 | 12.38 | I (otherwise these were reported as inactive (I)) |
| CC[C@H](C)[C@H]1O[C@]2(CC[C@@H]1C)C[C@@H]1C[C@@H](C/C=C(\C)[C@@H](O)[C@@H](C)/C=C/C=C3\CO[C@@H]4[C@H](O)C(C)=C[C@@H](C(=O)O1)[C@]34O)O2 [BIA-I1151] | 12.98 | 12.38 | I (otherwise these were reported as inactive (I)) |
| CC[C@H](C)[C@H]1O[C@]2(CC[C@@H]1C)C[C@@H]1C[C@@H](C/C=C(\C)[C@@H](O[C@H]3C[C@H](OC)[C@@H](O[C@H]4C[C@H](OC)[C@@H](O)[C@H](C)O4)[C@H](C)O3)[C@@H](C)/C=C/C=C3\CO[C@@H]4[C@H](O)C(C)C=C(C(=O)O1)[C@]34O)O2 (stereo partly drawn) [BIA-I1581] | 13.44 | 13.34 | I (otherwise these were reported as inactive (I)) |
| CN(C)C1C(=O)C(C(N)=O)=C(O)C2(O)C(=O)CC(C3(C)OC(=O)c4c(O)ccc(Cl)c43)CC12 (stereo not drawn) [BIA-I1656] | 15.87 | 12.89 | I (otherwise these were reported as inactive (I)) |

| Compound | T.vaginalis_%inb_Rep1 [1] [%] | T.vaginalis_%inb_Rep2 [1] [%] | NFF_Activity [2] |
| --- | --- | --- | --- |
| COC(=O)C1=CO[C@@H](C)[C@@H]2CN3CCc4c([nH]c5cc(OC)c(OC)cc45)[C@@H]3C[C@H]12 [BIA-I1957] | 9.33 | 14.44 | I (otherwise these were reported as inactive (I)) |
| O=C1C=CC(=O)c2c(O)cccc21 [BIA-J1739] | 12.73 | 10.78 | A (active (A) compounds having >25% inhibitory activity) |
| COC(=O)C1(O)CC2OC1(C)n1c3ccccc3c3c4c(c5c6ccccc6n2c5c31)C(=O)NC4 (stereo not drawn) [BIA-K1225] | 61.16 | 66.84 | A (active (A) compounds having >25% inhibitory activity) |
| COc1cc(C)c2c(OC)cc(=O)oc2c1-c1c(OC)cc(C)c2c(OC)cc(=O)oc12 [BIA-K1634] | 14.30 | 13.02 | I (otherwise these were reported as inactive (I)) |
| O=c1cc(CO)occ1O [BIA-K1696] | 13.34 | 13.98 | I (otherwise these were reported as inactive (I)) |
| Cc1c2ccocc-2oc1=O [BIA-K1791] | 12.47 | 13.47 | I (otherwise these were reported as inactive (I)) |
| O=c1cc2ccocc-2o1 [BIA-K1792] | 12.93 | 13.15 | I (otherwise these were reported as inactive (I)) |
| CC(C=CC1OC(=O)C=CC1C)=CC(C)CC=CC(C)=CC(C)C(=O)C(C)C(O)C(C)CC(C)=CC(=O)O (stereo not drawn) [BIA-L1045] | 3.96 | 1.86 | A (active (A) compounds having >25% inhibitory activity) |
| CCC(C=CC1OC(=O)C=CC1C)=CC(C)CC=CC(C)=CC(C)C(=O)C(C)C(O)C(C)CC(C)=CC(=O)O (stereo not drawn) [BIA-L1046] | 99.95 | 96.86 | A (active (A) compounds having >25% inhibitory activity) |
| COc1cc(O)c2c(c1)C=CCC(O)C(O)C(=O)C=CCC(C)OC2=O (stereo not drawn) [BIA-L1160] | 12.27 | 12.76 | I (otherwise these were reported as inactive (I)) |
| CC[C@H](C)C(=O)O[C@H]1C[C@@H](C)C=C2C=C[C@H](C)[C@H](CC[C@@H]3C[C@@H](O)CC(=O)O3)[C@H]21 [BIA-L1264] | 13.08 | 12.64 | A (active (A) compounds having >25% inhibitory activity) |
| CCC[C@@H]1C[C@@H](C(=O)N[C@@H]([C@H]2O[C@H](SC)[C@H](O)[C@@H](O)[C@H]2O)[C@@H](C)O)N(C)C1 [BIA-L1457] | 12.27 | 9.94 | I (otherwise these were reported as inactive (I)) |
| CCC(C(=O)C(C)C(O)C(C)CCc1ccc(C)c(O)c1C(=O)O)C1OC(CC)(C2CCC(O)(CC)C(C)O2)CC1C (stereo not drawn) [BIA-L1533] | 11.71 | 10.90 | I (otherwise these were reported as inactive (I)) |
| Cc1cc(OC(=O)c2c(C)cc(O)cc2O)cc(O)c1C(=O)O [BIA-L1669] | 11.51 | 3.53 | I (otherwise these were reported as inactive (I)) |
| CCCCCc1c2c(cc(O)c1C(=O)O)OC(=O)c1c(cc(OC)cc1C(=O)CCCC)O2 [BIA-L1671] | 10.45 | 14.37 | I (otherwise these were reported as inactive (I)) |
| CC1(C)OC2CC(=O)OCC23C1CC(=O)C1(C)C3CCC2(C)C(c3ccoc3)OC(=O)C3OC321 (stereo not drawn) [BIA-L1755] | 11.46 | 13.09 | I (otherwise these were reported as inactive (I)) |
| C=C(C)C1CCC2(C)CCC3(C)C(CCC4C5(C)CCC(O)C(C)(C)C5CCC43C)C12 (stereo not drawn) [BIA-L1759] | 12.73 | 12.70 | I (otherwise these were reported as inactive (I)) |
| O=C1CCC[C@@H]2[C@H]3C[C@@H](CN12)[C@@H]1CCCCN1C3 [BIA-L1951] | 8.91 | 11.70 | I (otherwise these were reported as inactive (I)) |
| COc1c(-c2ccccc2)c2ccccc2[nH]c1=O [BIA-M1149] | 20.69 | 13.28 | I (otherwise these were reported as inactive (I)) |
